Literature values in patent US20240298642A1, “Herbicidal Compositions Comprising Fluazifop And Triclopyr” (Bayer CropScience LP, priority 2023, published 2024).

Settings: neat solvent

flash point [°C] | SMILES
81 | CCCCCCCCO [Composition 1-octanol, 1-octanol]
65 | CCCCCCO [Composition 1-hexanol, 1-hexanol]
